# In ChEMBL document CHEMBL3751802, “Identification of six new lupane-type triterpenoids from Acanthopanax koreanum leaves and their tyrosinase inhibitory activities” (Bioorg Med Chem Lett, 2016):
# Tests used:
# [1] = biological target: T1, Tyrosinase (Agaricus bisporus) (UniProt O42713); assay: Inhibition of mushroom tyrosinase using L-tyrosine as substrate at >12.5 uM measured every 1 min for 20 mins by spectrophotometric assay relative to control
# T1 sequence (whole entry): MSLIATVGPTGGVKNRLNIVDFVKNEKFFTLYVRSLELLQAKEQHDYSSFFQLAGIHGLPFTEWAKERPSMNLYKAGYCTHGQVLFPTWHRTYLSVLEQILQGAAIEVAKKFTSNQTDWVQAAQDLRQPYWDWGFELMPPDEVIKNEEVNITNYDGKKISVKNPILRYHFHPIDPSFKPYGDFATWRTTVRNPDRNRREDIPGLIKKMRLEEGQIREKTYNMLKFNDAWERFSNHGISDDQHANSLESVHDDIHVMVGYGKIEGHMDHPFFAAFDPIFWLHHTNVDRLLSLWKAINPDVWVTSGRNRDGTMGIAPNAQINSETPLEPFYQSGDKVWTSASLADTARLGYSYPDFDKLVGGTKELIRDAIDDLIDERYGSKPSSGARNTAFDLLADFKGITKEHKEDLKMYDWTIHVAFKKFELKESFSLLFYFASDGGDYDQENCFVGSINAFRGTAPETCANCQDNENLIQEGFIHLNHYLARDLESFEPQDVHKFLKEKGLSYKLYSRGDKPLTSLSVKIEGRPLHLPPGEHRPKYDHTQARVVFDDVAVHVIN
# [2] = biological target: T2, Tyrosinase (Agaricus bisporus, UniProt O42713); assay: Inhibition of mushroom tyrosinase using L-tyrosine as substrate measured every 1 min for 20 mins by spectrophotometric assay
# T2 sequence (O42713 whole entry): T1 sequence (whole entry)
Structure (SMILES),inhibition [1] [%],IC50 [2] [µM]
COC(OC)[C@H](C)[C@@H]1CC[C@]2(C(=O)O)CC[C@]3(C)[C@H](CC[C@@H]4[C@@]5(C)CC[C@@H](O)[C@@](C)(C(=O)O)[C@@H]5CC[C@]43C)[C@@H]12,< 100,
CC(=O)[C@@H]1CC[C@]2(C(=O)O)CC[C@]3(C)[C@H](C[C@@H](O)[C@@H]4[C@@]5(C)CC[C@@H](O)C(C)(C(=O)O)[C@@H]5CC[C@]43C)[C@@H]12 (some centres not stated),< 100,
C[C@H](C=O)[C@@H]1CC[C@]2(C(=O)O)CC[C@]3(C)[C@H](CC[C@@H]4[C@@]5(C)CC[C@@H](O)[C@@](C)(C(=O)O)[C@@H]5CC[C@]43C)[C@@H]12,< 100,
C[C@]12CC[C@@H](O)[C@@](C)(C(=O)O)[C@@H]1CC[C@]1(C)[C@@H]2CC[C@@H]2[C@H]3[C@H]([C@](C)(O)CO)CC[C@]3(C(=O)O)CC[C@]21C,< 100,8.61
C=C(CO)[C@@H]1CC[C@]2(C(=O)O)CC[C@]3(C)[C@H](C[C@@H](O)[C@@H]4[C@@]5(C)CC[C@@H](O)[C@@](C)(C(=O)O)[C@@H]5CC[C@]43C)[C@@H]12,< 100,
C=C(C)[C@@H]1CC[C@]2(C(=O)O)CC[C@]3(C)[C@H](CC[C@@H]4[C@@]5(C)CC[C@@H](O)C(C)(C(=O)O)[C@@H]5CC[C@]43C)[C@@H]12 (some centres not stated),< 100,
C[C@H](CO)[C@@H]1CC[C@]2(C(=O)O)CC[C@]3(C)[C@H](CC[C@@H]4[C@@]5(C)CC[C@@H](O)[C@@](C)(C=O)[C@@H]5C[C@H](O)[C@]43C)[C@@H]12,< 100,
C=C(C)[C@@H]1CC[C@]2(C(=O)O)CC[C@]3(C)[C@H](CC[C@@H]4[C@@]5(C)CC[C@@H](O)[C@@](C)(C=O)[C@@H]5CC[C@]43C)[C@@H]12,< 100,25.8
C=C(CO)[C@@H]1CC[C@]2(C(=O)O)CC[C@]3(C)[C@H](C[C@@H](O)[C@@H]4[C@@]5(C)CC[C@@H](O)[C@@](C)(C=O)[C@@H]5CC[C@]43C)[C@@H]12,< 100,63.5
CC1=CC[C@@H](C(C)(C)O[C@@H]2O[C@H](CO)[C@@H](O)[C@H](O)[C@H]2O)CC1,< 100,16.9
C=C(CO)[C@@H]1CC[C@]2(C(=O)O)CC[C@]3(C)[C@H](C[C@@H](O)[C@@H]4[C@@]5(C)CC[C@@H](O)C(C)(C)[C@@H]5CC[C@]43C)[C@@H]12,< 100,
C=C(C)[C@@H]1CC[C@]2(C(=O)O)CC[C@]3(C)[C@H](C[C@@H](O)[C@@H]4[C@@]5(C)CC[C@@H](O)C(C)(C=O)[C@@H]5CC[C@]43C)[C@@H]12 (some centres not stated),< 100,
C[C@@]12CCC[C@@](C)(C(=O)O[C@@H]3O[C@H](CO)[C@@H](O)[C@H](O)[C@H]3O)[C@H]1CC[C@@]13C[C@H](CC[C@H]12)[C@@](O)(CO)C3,< 100,
